# Measurements: patent US20250230193A1, “CYCLIC COMPOUND HAVING SELECTIVE KRAS INHIBITORY EFFECT ON HRAS AND NRAS” (CHUGAI SEIYAKU KABUSHIKI KAISHA, priority 2022, published 2025)
# Experiments:
# [1] = biological target: GDP-bound NRAS wild-type protein (Homo sapiens, UniProt P01111); test: Binding to NRAS by surface plasmon resonance (SPR), Single Cycle Kinetics
# [2] = biological target: GDP-bound HRAS wild-type protein (Homo sapiens, UniProt P01112); test: Binding to HRAS by surface plasmon resonance (SPR), Single Cycle Kinetics
# [3] = SPR, GDP-bound NRAS wild-type vs GDP-bound KRAS wild-type
# [4] = SPR, GDP-bound HRAS wild-type vs GDP-bound KRAS wild-type
# [5] = KD ratio, GDP-bound NRAS wild-type vs GDP-bound KRAS wild-type, SPR
# [6] = KD ratio, GDP-bound HRAS wild-type vs GDP-bound KRAS wild-type, SPR
# Chain of GDP-bound NRAS wild-type protein (P01111 whole entry): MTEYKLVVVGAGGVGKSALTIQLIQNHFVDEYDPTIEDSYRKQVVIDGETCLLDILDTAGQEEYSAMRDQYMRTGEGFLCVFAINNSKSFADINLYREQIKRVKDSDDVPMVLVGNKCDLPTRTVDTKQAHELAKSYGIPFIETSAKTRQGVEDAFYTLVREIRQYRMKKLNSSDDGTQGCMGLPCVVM
# Chain of GDP-bound HRAS wild-type protein (P01112 whole entry): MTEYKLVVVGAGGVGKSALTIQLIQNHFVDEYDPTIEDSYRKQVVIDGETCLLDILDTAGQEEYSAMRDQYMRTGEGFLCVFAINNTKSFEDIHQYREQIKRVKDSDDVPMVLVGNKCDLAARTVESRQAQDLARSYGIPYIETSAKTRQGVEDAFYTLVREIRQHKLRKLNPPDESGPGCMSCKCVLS
smiles,measurement,setting,value
CCCOC[C@H]1C(=O)N[C@@H]([C@@H](C)CC)C(=O)N(C)CC(=O)N(C)[C@H]2C/C=C\CCN(C2=O)[C@@H](CC2CCC(F)(F)CC2)C(=O)N(C)CC(=O)N[C@@H](CCc2ccc(C(F)(F)F)c(OC)c2)C(=O)N2C[C@@H](C)C[C@H]2C(=O)N(C)C2(CCC2)C(=O)N(C)[C@@H](C2CCCC2)C(=O)N(C)[C@H](C(=O)N(C)C)CC(=O)N1C [PP2377],NRAS/KRAS (ratio of KD value with respect to NRAS to KD value with respect to KRAS),[1]; [3],A (a compound having 10 or more and less than 20 is denoted as A)
same,HRAS/KRAS (ratio of KD value with respect to HRAS to KD value with respect to KRAS),[2]; [4],A (a compound having 10 or more and less than 20 is denoted as A)
CCO[C@@H]1C[C@H]2C(=O)NC3(CCC3)C(=O)N(C)[C@@H](C3CCCC3)C(=O)N(C)[C@H](C(=O)N(C)C)CC(=O)N(C)[C@@H](COC)C(=O)N[C@@H]([C@@H](C)CC)C(=O)N(C)CC(=O)N(C)[C@H]3CCCCCN(C3=O)[C@@H](Cc3ccc(C(F)(F)F)cc3)C(=O)N(C)CC(=O)N[C@@H](CCc3cc(F)c(C(F)(F)F)c(F)c3)C(=O)N2C1 [PP0674],NRAS/KRAS (ratio of KD value with respect to GDP-bound NRAS wild-type protein to KD value with respect to KRAS),[1]; SPR,B (a compound having 3 or more and less than 10 is denoted as B)
same,HRAS/KRAS (ratio of KD value with respect to GDP-bound HRAS wild-type protein to KD value with respect to KRAS),[2]; SPR,B (a compound having 3 or more and less than 10 is denoted as B)
CCO[C@@H]1C[C@H]2C(=O)NC3(CCC3)C(=O)N(C)[C@@H](C3CCCC3)C(=O)N(C)[C@H](C(=O)N(C)C)CC(=O)N(C)[C@@H](CC3CCC3)C(=O)N[C@@H]([C@@H](C)CC)C(=O)N(C)CC(=O)N(C)[C@H]3C/C=C\CCN(C3=O)[C@@H](Cc3ccc(C(F)(F)F)cc3)C(=O)N(C)CC(=O)N[C@@H](CCc3cc(F)c(C(F)(F)F)c(F)c3)C(=O)N2C1 [PP1118],NRAS/KRAS (ratio of KD value with respect to NRAS to KD value with respect to KRAS),[1]; [5],A (a compound having 10 or more and less than 20 is denoted as A)
same,HRAS/KRAS (ratio of KD value with respect to HRAS to KD value with respect to KRAS),[2]; [6],B (a compound having 3 or more and less than 10 is denoted as B)
CCCCO[C@H]1CCN2C(=O)[C@H](CCc3cc(F)c(C(F)(F)F)c(F)c3)NC(=O)CN(C)C(=O)[C@H](Cc3ccc(C(F)(F)F)cc3)N3CCCCC[C@@H](C3=O)N(C)C(=O)CN(C)C(=O)[C@H]([C@@H](C)CC)NC(=O)[C@H](CC(C)C)N(C)C(=O)C[C@@H](C(=O)N3CCOCC3)N(C)C(=O)[C@H](C3CCCC3)N(C)C(=O)C3(CCC3)NC(=O)[C@H]12 [PP1009],NRAS/KRAS (ratio of KD value with respect to NRAS to KD value with respect to KRAS),[1]; [5],B (a compound having 3 or more and less than 10 is denoted as B)
same,HRAS/KRAS (ratio of KD value with respect to HRAS to KD value with respect to KRAS),[2]; [6],B (a compound having 3 or more and less than 10 is denoted as B)
CCCN(C)C(=O)[C@@H]1CC(=O)N(C)[C@@H](C(C)C)C(=O)N[C@@H]([C@@H](C)CC)C(=O)N(C)CC(=O)N(C)[C@H]2C/C=C\CCN(C2=O)[C@@H](Cc2ccc(C(F)(F)F)cc2)C(=O)N(C)CC(=O)N[C@@H](CCc2cc(F)c(C(F)(F)F)c(F)c2)C(=O)N2C[C@@H](C)C[C@H]2C(=O)NC2(CCC2)C(=O)N(C)[C@@H](C2CCCC2)C(=O)N1C [PP2079],NRAS/KRAS (ratio of KD value with respect to NRAS to KD value with respect to KRAS),[1]; [3],A (a compound having 10 or more and less than 20 is denoted as A)
same,HRAS/KRAS (ratio of KD value with respect to HRAS to KD value with respect to KRAS),[2]; [4],A (a compound having 10 or more and less than 20 is denoted as A)
CCC[C@H]1C(=O)N[C@@H]([C@@H](C)CC)C(=O)N(C2CC2)CC(=O)N(C)[C@H]2C/C=C\CCN(C2=O)[C@@H](CC2CCC(F)(F)CC2)C(=O)N(C)CC(=O)N[C@@H](CCc2cc(F)c(C(F)(F)F)c(F)c2)C(=O)N2C[C@H](OCC)C[C@H]2C(=O)NC2(CC(C)(C)C2)C(=O)N(C)[C@@H](C2CCCC2)C(=O)N(C)[C@H](C(=O)N(C)C)CC(=O)N1C [PP2566],NRAS/KRAS (ratio of KD value with respect to GDP-bound NRAS wild-type protein to KD value with respect to KRAS),[1]; class symbols,A (a compound having 10 or more and less than 20 is denoted as A)
same,HRAS/KRAS (ratio of KD value with respect to GDP-bound HRAS wild-type protein to KD value with respect to KRAS),[2]; class symbols,B (a compound having 3 or more and less than 10 is denoted as B)
CCO[C@@H]1C[C@H]2C(=O)NC3(CC(C)(C)C3)C(=O)N(C)[C@@H](C(CC)CC)C(=O)N(C)[C@H](C3CCC3)CC(=O)N(C)[C@@H](CC3CC3)C(=O)N[C@@H]([C@@H](C)CC)C(=O)N(C)CC(=O)N(C)[C@H]3C/C=C\CCN(C3=O)[C@@H](Cc3ccc(C(F)(F)F)cc3)C(=O)N(C)CC(=O)N[C@@H](CCc3cc(F)c(C(F)(F)F)c(F)c3)C(=O)N2C1 [PP1634],NRAS/KRAS (ratio of KD value for NRAS to KD value for KRAS),[1]; [5],A (a compound having 10 or more and less than 20 is denoted as A)
same,HRAS/KRAS (ratio of KD value for HRAS to KD value for KRAS),[2]; [6],A (a compound having 10 or more and less than 20 is denoted as A)
